Experimental data as given in the NIST ThermoML archive (doi:10.1021/acs.jced.6b00430).
Numbers after ± are expanded uncertainties.

Experiment: xn = mol fraction of the nth substance listed
Conditions: 100 kPa, Liquid; for electrical conductivity: Alternating current cell with electrodes; for viscosity: Concentric cylinders viscometry; for mass density: Vibrating tube method

O=[PH](O)O [phosphonic acid] + CN(C)C=O
Conditions | electrical conductivity [S/m] | mass density [kg/m3] | viscosity [mPa·s]
298.15 K, x1 = 0.0911 | – | 992.53 ± 10 | –
298.15 K, x1 = 0.1181 | 0.0572 ± 0.0057 | – | –
298.15 K, x1 = 0.1365 | – | 1016.46 ± 10 | –
298.15 K, x1 = 0.1798 | – | 1040.55 ± 10 | –
298.15 K, x1 = 0.1829 | – | 1041.85 ± 10 | –
298.15 K, x1 = 0.1973 | – | – | 2.92 ± 0.18
298.15 K, x1 = 0.2293 | – | 1069.29 ± 10 | –
298.15 K, x1 = 0.2507 | – | – | 4.75 ± 0.29
298.15 K, x1 = 0.291 | – | 1104.79 ± 10 | –
298.15 K, x1 = 0.2984 | 0.0925 ± 0.0093 | – | 7.07 ± 0.43
298.15 K, x1 = 0.3115 | – | – | 7.88 ± 0.47
298.15 K, x1 = 0.3298 | 0.0934 ± 0.0093 | 1129.74 ± 10 | –
298.15 K, x1 = 0.3442 | – | 1137.78 ± 10 | –
298.15 K, x1 = 0.3491 | – | – | 11.5 ± 0.7
298.15 K, x1 = 0.3712 | – | 1154.77 ± 10 | –
298.15 K, x1 = 0.3937 | – | 1169.25 ± 10 | –
298.15 K, x1 = 0.3968 | 0.129 ± 0.013 | – | 17.6 ± 1.1
298.15 K, x1 = 0.3988 | – | – | 17.8 ± 1.1
298.15 K, x1 = 0.4107 | – | 1182.13 ± 10 | 20.7 ± 1.2
298.15 K, x1 = 0.421 | – | 1188.34 ± 10 | –
298.15 K, x1 = 0.4479 | 0.141 ± 0.014 | 1207.13 ± 10 | 28.7 ± 1.7
298.15 K, x1 = 0.4707 | – | 1221.83 ± 10 | –
298.15 K, x1 = 0.493 | – | 1235.89 ± 10 | –
298.15 K, x1 = 0.4968 | – | – | 41.6 ± 2.5
298.15 K, x1 = 0.5074 | – | 1244.77 ± 10 | 43.9 ± 2.6
298.15 K, x1 = 0.5196 | – | 1255.1 ± 10 | –
298.15 K, x1 = 0.5429 | – | 1270.6 ± 10 | –
298.15 K, x1 = 0.5503 | – | – | 62.4 ± 3.8
298.15 K, x1 = 0.5724 | – | 1292.1 ± 10 | –
298.15 K, x1 = 0.5761 | 0.216 ± 0.022 | – | 73.5 ± 4.4
298.15 K, x1 = 0.5925 | – | 1306.05 ± 10 | –
298.15 K, x1 = 0.5993 | – | – | 80.5 ± 4.9
298.15 K, x1 = 0.6245 | – | 1328.62 ± 10 | –
298.15 K, x1 = 0.6261 | – | – | 90 ± 5.5
298.15 K, x1 = 0.6316 | 0.294 ± 0.029 | – | 95.2 ± 5.8
298.15 K, x1 = 0.6478 | – | – | 102.8 ± 6.3
298.15 K, x1 = 0.6554 | 0.333 ± 0.033 | 1355.76 ± 10 | 103.3 ± 6.3
298.15 K, x1 = 0.6753 | – | 1364.54 ± 10 | –
298.15 K, x1 = 0.682 | 0.411 ± 0.041 | – | 113.5 ± 6.9
298.15 K, x1 = 0.6923 | – | 1378.85 ± 10 | –
298.15 K, x1 = 0.7142 | – | 1399.02 ± 10 | 122.7 ± 7.5
298.15 K, x1 = 0.725 | – | 1401.52 ± 10 | –
298.15 K, x1 = 0.7592 | – | 1432.85 ± 10 | –
298.15 K, x1 = 0.7694 | 0.663 ± 0.066 | 1444 ± 10 | 139.8 ± 8.6
298.15 K, x1 = 0.7832 | 0.702 ± 0.07 | – | 142.5 ± 8.8
298.15 K, x1 = 0.7845 | – | 1450.65 ± 10 | –
308.15 K, x1 = 0.0911 | – | 983.17 ± 10 | –
308.15 K, x1 = 0.1181 | 0.0647 ± 0.0065 | – | –
308.15 K, x1 = 0.1365 | – | 1007.16 ± 10 | –
308.15 K, x1 = 0.1798 | – | 1031.35 ± 10 | –
308.15 K, x1 = 0.1829 | – | 1032.63 ± 10 | –
308.15 K, x1 = 0.1973 | – | – | 2.49 ± 0.15
308.15 K, x1 = 0.2293 | – | 1060.16 ± 10 | –
308.15 K, x1 = 0.2507 | – | – | 3.92 ± 0.24
308.15 K, x1 = 0.291 | – | 1095.72 ± 10 | –
308.15 K, x1 = 0.2984 | 0.116 ± 0.012 | – | 5.72 ± 0.34
308.15 K, x1 = 0.3115 | – | – | 6.3 ± 0.38
308.15 K, x1 = 0.3298 | 0.119 ± 0.012 | 1120.73 ± 10 | –
308.15 K, x1 = 0.3442 | – | 1128.83 ± 10 | –
308.15 K, x1 = 0.3491 | – | – | 9.06 ± 0.55
308.15 K, x1 = 0.3712 | – | 1145.98 ± 10 | –
308.15 K, x1 = 0.3937 | – | 1160.41 ± 10 | –
308.15 K, x1 = 0.3968 | 0.169 ± 0.017 | – | 13.3 ± 0.8
308.15 K, x1 = 0.3988 | – | – | 14 ± 0.8
308.15 K, x1 = 0.4107 | – | 1173.31 ± 10 | 15.4 ± 0.9
308.15 K, x1 = 0.421 | – | 1179.34 ± 10 | –
308.15 K, x1 = 0.4479 | 0.19 ± 0.019 | 1198.35 ± 10 | 20.9 ± 1.3
308.15 K, x1 = 0.4707 | – | 1213.06 ± 10 | –
308.15 K, x1 = 0.493 | – | 1227.23 ± 10 | –
308.15 K, x1 = 0.4968 | – | – | 29.2 ± 1.8
308.15 K, x1 = 0.5074 | – | 1236.13 ± 10 | 30.3 ± 1.8
308.15 K, x1 = 0.5196 | – | 1246.49 ± 10 | –
308.15 K, x1 = 0.5429 | – | 1262.02 ± 10 | –
308.15 K, x1 = 0.5503 | – | – | 42.4 ± 2.6
308.15 K, x1 = 0.5724 | – | 1283.54 ± 10 | –
308.15 K, x1 = 0.5761 | 0.301 ± 0.03 | – | 48.6 ± 2.9
308.15 K, x1 = 0.5925 | – | 1297.57 ± 10 | –
308.15 K, x1 = 0.5993 | – | – | 51 ± 3.1
308.15 K, x1 = 0.6245 | – | 1320.2 ± 10 | –
308.15 K, x1 = 0.6261 | – | – | 59.4 ± 3.6
308.15 K, x1 = 0.6316 | 0.41 ± 0.041 | – | 61.2 ± 3.7
308.15 K, x1 = 0.6478 | – | – | 64.5 ± 3.9
308.15 K, x1 = 0.6554 | 0.476 ± 0.048 | 1347.39 ± 10 | 66.1 ± 4
308.15 K, x1 = 0.6753 | – | 1356.23 ± 10 | –
308.15 K, x1 = 0.682 | 0.589 ± 0.059 | – | 72.4 ± 4.4
308.15 K, x1 = 0.6923 | – | 1370.56 ± 10 | –
308.15 K, x1 = 0.7142 | – | 1390.77 ± 10 | 78.3 ± 4.7
308.15 K, x1 = 0.725 | – | 1393.35 ± 10 | –
308.15 K, x1 = 0.7592 | – | 1424.69 ± 10 | –
308.15 K, x1 = 0.7694 | 0.959 ± 0.096 | 1435.87 ± 10 | 87.4 ± 5.3
308.15 K, x1 = 0.7832 | 1.02 ± 0.1 | – | 88.2 ± 5.4
308.15 K, x1 = 0.7845 | – | 1442.56 ± 10 | –
318.15 K, x1 = 0.0911 | – | 973.7 ± 10 | –
318.15 K, x1 = 0.1181 | 0.0725 ± 0.0073 | – | –
318.15 K, x1 = 0.1365 | – | 997.83 ± 10 | –
318.15 K, x1 = 0.1798 | – | 1022.15 ± 10 | –
318.15 K, x1 = 0.1829 | – | 1023.41 ± 10 | –
318.15 K, x1 = 0.1973 | – | – | 2.16 ± 0.13
318.15 K, x1 = 0.2293 | – | 1051.04 ± 10 | –
318.15 K, x1 = 0.2507 | – | – | 3.35 ± 0.2
318.15 K, x1 = 0.291 | – | 1086.67 ± 10 | –
318.15 K, x1 = 0.2984 | 0.142 ± 0.014 | – | 4.77 ± 0.29
318.15 K, x1 = 0.3115 | – | – | 5.21 ± 0.31
318.15 K, x1 = 0.3298 | 0.148 ± 0.015 | 1111.75 ± 10 | –
318.15 K, x1 = 0.3442 | – | 1119.89 ± 10 | –
318.15 K, x1 = 0.3491 | – | – | 7.26 ± 0.44
318.15 K, x1 = 0.3712 | – | 1137.21 ± 10 | –
318.15 K, x1 = 0.3937 | – | 1151.58 ± 10 | –
318.15 K, x1 = 0.3968 | 0.217 ± 0.022 | – | 10.5 ± 0.6
318.15 K, x1 = 0.3988 | – | – | 10.6 ± 0.6
318.15 K, x1 = 0.4107 | – | 1164.51 ± 10 | 12 ± 0.7
318.15 K, x1 = 0.4479 | 0.25 ± 0.025 | – | 15.8 ± 1
318.15 K, x1 = 0.4968 | – | – | 21.2 ± 1.3
318.15 K, x1 = 0.5074 | – | – | 22.2 ± 1.3
318.15 K, x1 = 0.5503 | – | – | 30 ± 1.8
318.15 K, x1 = 0.5761 | 0.397 ± 0.04 | – | 34.1 ± 2.1
318.15 K, x1 = 0.5993 | – | – | 35.2 ± 2.1
318.15 K, x1 = 0.6261 | – | – | 41.2 ± 2.5
318.15 K, x1 = 0.6316 | 0.548 ± 0.055 | – | 42 ± 2.5
318.15 K, x1 = 0.6478 | – | – | 43.6 ± 2.6
318.15 K, x1 = 0.6554 | 0.626 ± 0.063 | – | 45 ± 2.7
318.15 K, x1 = 0.682 | 0.81 ± 0.081 | – | 49 ± 3
318.15 K, x1 = 0.7142 | – | – | 51.4 ± 3.1
318.15 K, x1 = 0.7694 | 1.33 ± 0.13 | – | 57.3 ± 3.5
318.15 K, x1 = 0.7832 | 1.41 ± 0.14 | – | 58.4 ± 3.5
